Assay results taken from PubChem BioAssay (NCI).
Values joined by “and” are separate entries in the source; they are usually repeats but may differ in a detail not shown here. Identical values can stand only once.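 Step 1: Grow cells in 96-well plates. Step 2: Expose to compound for 48 hours at 5 concentrations. Step 3: Interpolate endpoints linearly; if unreached, use highest concentration. Abbreviation: GI50, concentration required for 50% inhibition of growth. TGI: total growth inhibition.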

Key:
Test in all cases: NCI tumour cell line growth inhibition, 48 h
OVCAR-4 ovarian = test system: OVCAR-4 ovarian
LOX IMVI melanoma = test system: LOX IMVI melanoma
SF-295 CNS = test system: SF-295 CNS
NCI-H460 lung = test system: NCI-H460 lung
HOP-92 NSCLC = test system: HOP-92 NSCLC
SF-268 CNS = test system: SF-268 CNS
HOP-62 NSCLC = test system: HOP-62 NSCLC
SK-MEL-5 melanoma = test system: SK-MEL-5 melanoma
OVCAR-5 ovarian = test system: OVCAR-5 ovarian
SK-MEL-28 melanoma = test system: SK-MEL-28 melanoma

| Structure (SMILES) | GI50 (OVCAR-4 ovarian) [nM] | TGI (OVCAR-4 ovarian) | GI50 (LOX IMVI melanoma) [nM] | TGI (LOX IMVI melanoma) | GI50 (SF-295 CNS) [nM] | TGI (SF-295 CNS) | GI50 (NCI-H460 lung) | TGI (NCI-H460 lung) | GI50 (HOP-92 NSCLC) | TGI (HOP-92 NSCLC) | GI50 (SF-268 CNS) | TGI (SF-268 CNS) | GI50 (HOP-62 NSCLC) [nM] | TGI (HOP-62 NSCLC) [nM] | GI50 (SK-MEL-5 melanoma) | TGI (SK-MEL-5 melanoma) | GI50 (OVCAR-5 ovarian) | TGI (OVCAR-5 ovarian) | GI50 (SK-MEL-28 melanoma) | TGI (SK-MEL-28 melanoma) |
| --- | --- | --- | --- | --- | --- | --- | --- | --- | --- | --- | --- | --- | --- | --- | --- | --- | --- | --- | --- | --- |
| Cc1cc(NC(=O)NCc2ccc(N3C(N)=NC(N)=NC3(C)C)cc2)ccc1S(=O)(=O)F | 9310 | > 100000 nM | 824 | > 100000 nM | 1570 | > 100000 nM | 252 nM | > 75600 nM | 23200 nM | > 100000 nM | 682 nM | > 88000 nM | 12800 | > 100000 | 1110 nM | 58700 nM | > 25400 nM | > 100000 nM | 17700 nM | > 100000 nM |
| Nc1nc(SCc2ccccc2CCl)c2[nH]cnc2n1 | 13200 | 37300 nM | 12700 | 26900 nM | 18700 | 56000 nM | 15200 nM | 30900 nM | 20000 nM | 67800 nM | 12600 nM | 25600 nM | 17000 | 33200 | 10800 nM | 23700 nM | 18900 nM | 34600 nM | 17700 nM | 49700 nM |
| CCN(CC)c1ccc(/C=N/NC(=O)Cc2ccc(Nc3ccnc(C(F)(F)F)c3)cc2)c(O)c1 | 442 | > 100000 nM | 413 | 3800 nM | 713 | > 60000 nM | 351 nM | > 39700 nM | 4060 nM | > 100000 nM | 455 nM | > 100000 nM | 566 | > 100000 | 490 nM | 3860 nM | 2420 nM | > 100000 nM | 1100 nM | > 78000 nM |
| O=c1[nH]c2cc(Cl)ccc2nc1/C(=N\Nc1ccccc1)C(O)c1ccc2c(c1)OCO2 (stereo not drawn) |  | > 100000 nM |  | > 100000 nM |  | > 100000 nM |  | > 100000 nM |  | > 100000 nM |  | > 100000 nM |  | > 100000 |  | > 100000 nM |  | > 100000 nM |  | > 100000 nM |
| NNc1c(C(N)=O)c2c(N)ncnc2n1C1OC(CO)C(O)C1O (stereo not drawn) | < 10.5 | 776 nM and 160 nM | 34.9 | 130 nM and 1200 nM |  | 9440 nM and 2910 nM | 19.7 nM and 140 nM | 673 nM and 4450 nM | 28.5 nM and 50.7 nM | 347 nM and 333 nM | 45.1 nM and 92.8 nM | 1050 nM and 1220 nM | 124 |  | 60.1 nM and 82.8 nM | 194 nM and 275 nM | 57.8 nM and 309 nM | 1100 nM and 7560 nM | 138 nM and 29.1 nM | 759 nM and 192 nM |
| CC(=O)CCC1(c2ccccc2)OC(=O)C(C#N)=C1c1ccccc1 (stereo not drawn) |  | > 100000 nM |  | > 100000 nM |  | > 100000 nM |  | > 100000 nM |  | > 100000 nM |  | > 100000 nM |  | > 100000 |  | > 100000 nM |  | > 100000 nM |  | > 100000 nM |
| CC1[C@@]2(CCC(C)(C)O2)O[C@@H]2C=C3C4CCC5Cc6nc7c(nc6C[C@@]5(C)C4C[C@H](O)[C@@]3(C)[C@]12O)CC1CCC2C3=C[C@H]4O[C@@]5(O[C@@](C)(CO)C[C@@H]5O)C(C)[C@@]4(O)[C@]3(C)[C@@H](O)CC2[C@]1(C)C7 (stereo partly drawn) | 92.1 | 810 nM | 10.6 | 695 nM and 366 nM | < 0.365 |  | 1.35 nM | 365 nM and 39.2 nM | 2.28 nM |  | 4.64 nM | 904 nM and 125 nM | 0.389 |  | 16.5 nM | 370 nM and 84.1 nM | 5.86 nM |  |  | 221 nM |
